Assay results taken from patent publication US20260297088A1, “A 1,5-DIHYDRO-4H-PYRROLO[3,2-C] PYRIDIN-4-ONE FOR USE IN THE TREATMENT OF CANCER” (ANTARES THERAPEUTICS, INC., priority 2023, published 2026).
pIC50: −log10 of the molar value.

Legend:
[1] = system: EGFR containing one or more mutations versus wild type EGFR; details: compound of WO 2022/076831; cited from earlier work
[2] = system: BaF3 NPG (EGFR exon 20 NPG Ins D770_N771); test: Ba/F3 cell viability (CellTiter-Glo), EGFR exon 20 NPG Ins D770_N771; assay type: cell-based, murine; details: Mus musculus, Ba/F3 EGFR exon 20 NPG Ins D770_N771, 72 hours
Text: (§1) Cell lines are generated by transducing Ba/F3 cells with retroviruses containing vectors with EGFR WT, EGFR exon 20 NPG Ins D770_N771, EGFR exon 20 ASV Ins V769_D770, EGFR exon 20 SVD Ins D770_N771, or EGFR exon 20 FQEA Ins A763_V764 genes and a puromycin selection marker. Transduced cells are selected with puromycin for 7 days and are then be transferred into culture media without Interleukin 3 (IL3). EGFR WT cells are maintained with supplemental EGF. Surviving cells are confirmed to express EGFR by Western blot and maintained as a pool. The IC50 data are included in Table 6.
(§2) • 1 Cell seeding • 1.1 Cells are harvested from flask into cell culture medium and the cell number counted. • 1.2 Cells are diluted with culture medium to the desired density and 40 L of cell suspension is added into each well of 384-well cell culture plate and the seeding density is 600 cells/well. • 2 Compound preparation and treatment • 2.1 Test compounds are dissolved to 10 mM in a DMSO stock solution. 45 µL of stock solution is transferred to a 384 polypropylene plate (pp-plate). Perform 3-fold, 10-point dilution via transferring 15 L compound into 30 L DMSO using a TECAN (EVO200) liquid handler. • 2.2 Spin plates at room temperature at 1,000 RPM for 1 minute. • 2.3 Transfer 120 nL of diluted compound from compound source plate into the cell plate. • 2.4 After compound treatment for 72 hours, perform CTG detection for compound treatment plates as described in “Detection” section. • 3 Detection • 3.1 Plates are removed from incubators and equilibrated at room temperature for 15 minutes. • 3.2 Thaw the CellTiter Glo reagents and allow to equilibrate to room temperature before the experiment. • 3.3 Add 40 µL of CellTiter-Glo reagent into each well (at 1:1 to culture medium). Then place the plates at room temperature for 30 min followed by reading on EnVision. • 4 Data analysis • 4.1 Inhibition activity is calculated following the formula below:
(§3) [formula] • where HC is obtained from cells treated with 0.1% DMSO only; and LC is obtained from culture medium only. • 4.2 2. Calculate the IC50 by fitting the Curve using Xlfit (v5.3.1.3), equation 201:
(§4) [formula] • The IC50 date are included in Table 6.

[3] = system: BaF3 L858R/C797S; test: Ba/F3 cell viability (CellTiter-Glo), EGFR L858R/C797S; assay type: cell-based, murine; details: Mus musculus, 72 hours
[4] = system: BaF3 WT (EGFR WT); test: Ba/F3 cell viability (CellTiter-Glo), EGFR WT; assay type: cell-based, murine; details: Mus musculus, supplemental EGF, 72 hours
Text: as §1, §2, §3, §4

[5] = system: BaF3 ASV (EGFR exon 20 ASV Ins V769_D770); test: Ba/F3 cell viability (CellTiter-Glo), EGFR exon 20 ASV Ins V769_D770; assay type: cell-based, murine; details: Mus musculus, Ba/F3 EGFR exon 20 ASV Ins V769_D770, 72 hours
Text: as §1, §2, §3, §4

[6] = system: EGFR phosphorylation (pEGFR) in CUTO14 cells; test: Inhibitor activity on EGFR phosphorylation (pEGFR AlphaLISA), CUTO14 cells; assay type: cell-based; details: 2 hours
Text: EGFR mutant Ba/F3 cells were generated by transduction with retrovirus containing vectors expressing EGFR exon 20 NPG Ins D770_N771, EGFR exon 20 ASV Ins V769_D770, or EGFR exon 20 SVD Ins D770_N771 genes along with a puromycin selection marker. Transduced cells are selected with puromycin for 7 days and are then be transferred into culture media without Interleukin 3 (IL3). Surviving cells are confirmed to express EGFR by Western blot and maintained as a pool. CUTO14 cells were obtained from Dr. Robert C. Doebele at the University of Colorado. The IC50 data are included in Table 6.
• 1 Cell seeding • 1.1 Cells are harvested from flask into cell culture medium and the cell number counted. • 1.2 Cells are diluted with culture medium to the desired density and 40 μL of cell suspension is added into each well of 384-well cell culture plate and the seeding density is 50K cells/well (Ba/F3) or 12.5K cells/well (CUTO14). • 2 Compound preparation and treatment • 2.1 Test compounds are dissolved to 10 mM in a DMSO stock solution. 45 µL of stock solution is transferred to a 384 polypropylene plate (pp-plate). Perform 3-fold, 10-point dilution via transferring 15 L compound into 30 L DMSO using a TECAN (EVO200) liquid handler. • 2.2 Spin plates at room temperature at 1,000 RPM for 1 minute. • 2.3 Transfer 5 nL of diluted compound from compound source plate into the cell plate. • 2.4 After compound treatment for 2 hours, perform pEGFR detection by AlphaLISA for compound treatment plates as described in “Detection” section. • 3 Detection by pEGFR AlphaLISA (Perkin-Elmer) • 3.1 Plates are removed from incubators and equilibrated at room temperature for 10 minutes, and media was removed • 3.2 10 µL of lysis buffer is added and plates shaken at 600 rpm for 1 hr. • 3.3 Prepare acceptor mix just before use and dispense 5 μL of acceptor mix to all the wells. […] Mix well on the shaker, seal and wrap in aluminum foil and incubate 1.5 hrs at room temperature in the dark • 3.5 Transfer 18.5 μL mixture to OptiPlate 384, and read using an Envision.

[7] = system: BaF3 SVD (EGFR exon 20 SVD Ins D770_N771); test: Ba/F3 cell viability (CellTiter-Glo), EGFR exon 20 SVD Ins D770_N771; assay type: cell-based, murine; details: Mus musculus, Ba/F3 EGFR exon 20 SVD Ins D770_N771, 72 hours
Text: as §1, §2, §3, §4

[8] = system: EGFR L858R/C797S phosphorylation (pEGFR); test: Inhibitor activity on EGFR phosphorylation (pEGFR AlphaLISA), L858R/C797S; assay type: cell-based; details: 2 hours
[9] = system: EGFR Del19 phosphorylation (pEGFR); test: Inhibitor activity on EGFR phosphorylation (pEGFR AlphaLISA), Del19; assay type: cell-based; details: 2 hours
[10] = system: EGFR L858R phosphorylation (pEGFR); test: Inhibitor activity on EGFR phosphorylation (pEGFR AlphaLISA), L858R; assay type: cell-based; details: 2 hours
[11] = system: BaF3 Del19; test: Ba/F3 cell viability (CellTiter-Glo), EGFR Del19; assay type: cell-based, murine; details: Mus musculus, 72 hours
[12] = system: BaF3 L858R; test: Ba/F3 cell viability (CellTiter-Glo), EGFR L858R; assay type: cell-based, murine; details: Mus musculus, 72 hours

| pIC50 [2] | pIC50 [3] | pIC50 [4] | pIC50 [5] | pIC50 [6] | pIC50 [7] | pIC50 [8] | pIC50 [9] | pIC50 [10] | pIC50 [11] | pIC50 [12] | SMILES | inhibition of mutant EGFR relative to wild type EGFR [1] |
| --- | --- | --- | --- | --- | --- | --- | --- | --- | --- | --- | --- | --- |
| – | – | – | – | – | – | – | – | – | – | – | COCC[C@H]1CNC(=O)c2c1[nH]c(-c1ccnc(C)n1)c2Nc1cccc(Cl)c1OC [Compound 463b] | greater inhibition of EGFR containing one or more mutations relative to inhibition of wild type EGFR |
| 6.00 to 7.00 | > 7.00 | ≤ 6.00 | 6.00 to 7.00 | > 7.00 | 6.00 to 7.00 | > 7.00 | > 7.00 | > 7.00 | – | – | COCCc1c[nH]c(=O)c2c(Nc3cccc(F)c3OC)c(-c3ccnc(C)n3)[nH]c12 [Compound 4] | – |
| 6.00 to 7.00 | 6.00 to 7.00 | ≤ 6.00 | 6.00 to 7.00 | 6.00 to 7.00 | 6.00 to 7.00 | > 7.00 | > 7.00 | > 7.00 | > 7.00 | > 7.00 | COc1c(Cl)cccc1Nc1c(-c2ccnc(C)n2)[nH]c2c(CCO)c[nH]c(=O)c12 [Compound 5] | – |
| 6.00 to 7.00 | > 7.00 | ≤ 6.00 | 6.00 to 7.00 | > 7.00 | > 7.00 | > 7.00 | > 7.00 | > 7.00 | > 7.00 | > 7.00 | COCCc1c[nH]c(=O)c2c(Nc3cccc(Cl)c3OC)c(-c3ccncn3)[nH]c12 [Compound 2] | – |
| 6.00 to 7.00 | 6.00 to 7.00 | ≤ 6.00 | ≤ 6.00 | – | 6.00 to 7.00 | > 7.00 | > 7.00 | 6.00 to 7.00 | – | – | COc1c(F)cccc1Nc1c(-c2ccnc(C)n2)[nH]c2c(CCO)c[nH]c(=O)c12 [Compound 6] | – |
| – | – | ≤ 6.00 | 6.00 to 7.00 | – | 6.00 to 7.00 | – | – | – | > 7.00 | > 7.00 | COCCc1c[nH]c(=O)c2c(Nc3cccc(Cl)c3OC)c(-c3ccncc3F)[nH]c12 [Compound 3] | – |
